Laboratory results published in patent US20230119324A1, “EGFR INHIBITION TRIGGERS AN ADAPTIVE RESPONSE BY CO-OPTING ANTIVIRAL SIGNALING PATHWAYS IN LUNG CANCER” (The United States Government as represented by the …, priority 2020, published 2023).

Tests used:
TBK1 and IRF3 = experiment: Western blot for TBK1 and IRF3 activation in NSCLC cell lines; format: cell-based; conditions: EGFR-activating mutation cell lines, 0.1 µM erlotinib
Protocol: Western blot and immunoprecipitation were performed according to standard protocols. Western blot results are representative of at least 3 independent experiments. EGFR (06-847) antibody was from EMD Millipore (Billerica, MA); p-EGFR (Tyr1068) (2236), p-TBK1 (Ser172) (5483), TBK1 (3504), IKKε (2905), IRF3 (11904), K63-Ub (12930), RIG-I (3743), STAT1 (9172), p-STAT1 (Tyr701) (9167), AhR (83200), LAMIN A/C (4777), STING (3337), p-STING (Ser366) (19781), PD1 (86163), PD-L1 (13684), PD-L2 (82723) and IκBα (4814) antibodies were from Cell Signaling Technology (Danvers, MA); IFNAR1 (sc-7391), IFNGR1 (sc-12755), TNFR1 (sc-8346), and β-Actin (sc-47778) were from Santa Cruz Biotechnology (Dallas, TX); TRIM32 (Mab6515) antibody was from R&D (Minneapolis, MN); p-IRF3 (Ser386) (ab76493) antibody was from Abcam (Cambridge, MA).

KRas G12D lung tumors = experiment: KRAS LSL-G12D transgenic lung tumor model, MRI; format: in vivo; conditions: oral erlotinib 100 mg/kg/d, i.p. anti-mouse IFNAR1 antibody 3 mg/kg/d, 28 continuous days
Protocol: LSL-Kras G12D mice (008179): were purchased from Jackson laboratories and the colony was expanded by breeding heterozygous LSL-Kras G12D mice with wildtype mice. Genotyping was performed per the protocol on Jackson website. Lung tumors were induced in mice carrying the LSL-Kras G12D allele with intranasal administration of 2.5 x 10^8 PFU Adeno-CMV-Cre (University of Iowa). Treatments were initiated once the tumors were confirmed by with Magnetic resonance imaging (MRI) at about 10-12 weeks after tumor induction.
MRI Imaging was conducted at UT Southwestern Mouse MRI Core, Advanced Imaging Research Center, using a 7T small animal MRI scanner (Bruker, Rheinstetten, Germany) equipped with a 40 mm quadrature Radiofrequency (RF) coil (ExtendMR LLC, Milpitas, CA). […] Finally, higher resolution gradient echo images were recorded on the transverse plane, with the major parameters as follows: The repetition time (TR) = 200 ms (Note: the actual TR is changing according to ECG R-R interval, in range of 200 ms to 240 ms), the echo time (TE) = 1.966 ms, the flip angle (FA) = 45°, the number of average = 12, the field of view (FOV) = 32 x 32 mm^2, the matrix size = 256 x 256, the slice number = 17-21 (changed upon the mouse lung size), and the slice thickness = 1 mm without any gap. […]
Bi-weekly MRI scanning was used to monitor tumor growth. Tumor sizes were calculated by ImageJ. […]

IRF3 = experiment: ISRE / IFI27-ISRE luciferase reporter assay; format: cell-based; conditions: EGFR mutant NSCLC cell lines, erlotinib 24 h
Protocol: Cells were plated in 48 well dishes followed by plasmid transfection with two reporters detecting activation of IRF3, ISRE-luciferase reporter or IFI27-ISRE luciferase reporter^22, using lipofectamine 2000. A dual-luciferase reporter assay system was used according to the instructions of the manufacturer (Promega, Madison WI). Firefly luciferase activity was measured in the POLARstar Omega Microplate Reader (BMG LABTECH) and normalized based on Renilla luciferase activity. Three independent experiments were done in triplicate.

C#Cc1cccc(Nc2ncnc3cc(OCCOC)c(OCCOC)cc23)c1 [erlotinib]
TBK1 and IRF3 activation (TBK1 and IRF3): rapid and robust activation of TBK1 and IRF3 | tumor growth by MRI (KRas G12D lung tumors): robust tumor growth | IRF3 transcriptional activity (IRF3): increased IRF3 transcriptional activity was detected
